Data set [1] concerns TZM. In words: (§1) Cytotoxicity against human TZM-bl cells assessed as reduction in cell viability by CellTiter-Glo 2.0 assay. In kind it is toxicity, cell-based. The conditions noted are these: tzm. Background: In ATP-based viability assays light output follows the ATP content of the culture.
A short description of data set [2]: Aqueous solubility of the compound in PBS at pH 7.4 at 25 degC. In kind it is physicochemical.
Data set [3] deals with TZM. Put plainly: Cytotoxicity against human TZM-bl cells assessed as reduction in cell viability at <100 uM by CellTiter-Glo 2.0 assay. In kind it is toxicity, cell-based.
Data set [4] in a line: as §1. The format is toxicity, cell-based. Particulars: TZM-bl cells.

Values after ≈ are worked out from the molar mass of the structure shown.

In general, CC50 refers to the concentration giving 50% cytotoxicity. A word on the solubility: it is how much of the substance goes into solution per volume. Low values mean little dissolved substance, high ones much dissolved substance. In the case of `N=C(N)NCCCCC(=O)NCCN1CCC(NC(=O)C(=O)Nc2ccc(Cl)cc2)CC12CCCCC2.O=C(O)C(F)(F)F.O=C(O)C(F)(F)F` (configuration not stated), the CC50 in data set [1] turned out to be 201 µM. The molecule further showed a solubility in data set [2] greater than 16.4 mM. Also, the Activity entry in data set [3] is on record as “Non-Toxic”.
For `N=C(N)NCCCCC(=O)NCCN1CCC(NC(=O)C(=O)Nc2cncc(Cl)c2)CC12CCCCC2.O=C(O)C(F)(F)F.O=C(O)C(F)(F)F.O=C(O)C(F)(F)F` (configuration not stated), the 50% cytotoxic concentration (CC50) in data set [4] came out at 279 µM. Moreover, the solubility in data set [2] was greater than 50 mM. Moreover, in data set [3], the Activity result was “Non-Toxic”.
As for `CC1(C)CC(NC(=O)C(=O)Nc2ccc(F)nc2)CC(C)(C)N1`, the CC50 in data set [4] is greater than 300 µM.
For `N=C(N)NCCCCC(=O)NCCN1CCC(NC(=O)CNc2ccc(Cl)cn2)CC1.O=C(O)C(F)(F)F.O=C(O)C(F)(F)F.O=C(O)C(F)(F)F`, the CC50 in data set [4] was greater than 300 µM. In data set [2], this molecule came in with a solubility greater than 50 mM. Besides, the Activity entry in data set [3] is given as “Non-Toxic”.
On the same counts, the results for `COCCOCCOCCOCCOCCOCCOCCOCCOCCOCCOCCOCCNC(=O)CCC(=O)N[C@@H](CCCNC(=N)N)C(=O)NCCN1CCC(NC(=O)C(=O)Nc2ccc(Cl)cc2)CC12CCCCC2.O=C(O)C(F)(F)F.O=C(O)C(F)(F)F` (some centres not stated) are greater than 300 µM, greater than 13 mM and “Non-Toxic”.
As to `COCCOCCOCCOCCOCCOCCOCCOCCOCCOCCOCCOCCNC(=O)CCC(=O)N[C@@H](CCCNC(=N)N)C(=O)NCCN1CCC(NC(=O)C(=O)Nc2ccc(F)nc2)CC12CCCCC2.O=C(O)C(F)(F)F.O=C(O)C(F)(F)F.O=C(O)C(F)(F)F` (some centres not stated), the CC50 in data set [4] is greater than 100 µM. Also, the Activity entry in data set [3] is reported as “Non-Toxic”.
With `N=C(N)NCCCCC(=O)NCCN1CCC(NC(=O)C(=O)Nc2ccc(Cl)cn2)CC1.O=C(O)C(F)(F)F.O=C(O)C(F)(F)F.O=C(O)C(F)(F)F`, the 50% cytotoxic concentration (CC50) in data set [4] was greater than 300 µM. Further, the solubility in data set [2] is greater than 50 mM. Further, the Activity result in data set [3] was “Non-Toxic”.
For the molecule `CC1(C)CC(NC(=O)C(=O)Nc2ccc(Cl)cc2)CC(C)(C)N1`, the cytotoxic concentration (CC50) in data set [4] was determined as 177 µM.
For the molecule `N=C(N)NCCCCC(=O)NCCN1CCC(NC(=O)C(=O)Nc2ccc(F)nc2)CC12CCCCC2.O=C(O)C(F)(F)F.O=C(O)C(F)(F)F.O=C(O)C(F)(F)F` (configuration not stated), the CC50 in data set [4] was greater than 100 µM. For the same molecule, the Activity entry in data set [3] is “Non-Toxic”.
With `N=C(N)NCCCCC(=O)NCCN1CCC(NC(=O)C(=O)Nc2ccc(Cl)cc2)CC12CCCCC2` (configuration not stated), in data set [1], the CC50 was greater than 100 µM. In data set [2], this molecule registered a solubility of 0.47 mM (≈ 251 µg/mL). In addition, the Activity entry in data set [3] is given as “Non-Toxic”.
Take `N=C(N)NCCCCC(=O)NCCN1CCC(NC(=O)C(=O)Nc2cncc(F)c2)CC12CCCCC2.O=C(O)C(F)(F)F.O=C(O)C(F)(F)F.O=C(O)C(F)(F)F` (configuration not stated): the CC50 in data set [4] is greater than 300 µM. The same molecule displayed a solubility in data set [2] greater than 50 mM. For the same molecule, the Activity result in data set [3] is “Non-Toxic”.

The record behind these values is ChEMBL document CHEMBL5131454, “Exploratory studies on soluble small molecule CD4 mimics as HIV entry inhibitors” (Bioorg Med Chem, 2022).
